# Measured values taken from publication PMC8878317, “Chemogenomics identifies acetyl-coenzyme A synthetase as a target for malaria treatment and prevention” (Cell Chemical Biology, 2022).
# Read-outs that look alike come from different tables or passages of the source.
# How the values were obtained:
# Format in all cases: cell-based
# P. falciparum 3D7-A10 = experiment: Blood-stage dose-response assay (SYBR Green I, 72 hr), 3D7 / 3D7-A10 parent; settings: Plasmodium falciparum
# Procedure: (§1) The 3D7-A10 clone has been used in previous in vitro drug selection and sequencing efforts ([Cowell et al., 2018]). Dd2 parasites were obtained from T. Wellems (NIAID, NIH). Dd2-B2 is a genetically homogeneous line that was cloned from Dd2 by limiting dilution in the Fidock lab. Parasite strains were cultured in 3-5% human O+ hematocrit in RPMI 1640 (Life Technologies) supplemented with 28 mM NaHCO3, 25 mM HEPES, and hypoxanthine ([…]). Depending on the parasite line, the media either contained gentamycin (25 μg/mL), or no antibiotic and was additionally supplemented with 0.5% AlbuMAX II (Life Technologies) and/or O+ human serum (heat inactivated and pooled). Blood and serum products were obtained from Interstate Blood Bank. Cultures were maintained at 37°C in 1.1% O2, 4% CO2, and 95% N2. Parasite populations were synchronized by 5% sorbitol treatment ([Lambros and Vanderberg, 1979]).
# (§2) For in vitro–selected lines, drug susceptibility was measured by SYBR Green I–based assay ([Johnson et al., 2007]; [Smilkstein et al., 2004]). Ring-stage parasites were cultured for 72 hr at 1% hematocrit and 1% starting parasitemia in 384-well black clear-bottom plates containing test compounds plated in triplicate in 12-point serial dilutions. Lysis buffer (0.16% w/v saponin, 1.6% Triton X-100, 5 mM EDTA, and 20 mM Tris-HCl, pH 7.4) with SYBR Green I fluorescent dye (Invitrogen) was added, and fluorescence readings were taken (excitation at 494 nm, emission at 530 nm). Alternatively, Dd2-B2 ring-stage cultures at 0.3% parasitemia and 1% hematocrit were exposed for 72 hr to a range of ten drug concentrations that were 2-fold serially diluted in duplicates along with drug-free controls. Parasite survival was assessed by flow cytometry on an Accuri C6 (BD Biosciences) using SYBR Green and MitoTracker Deep Red FM (Life Technologies) as nucleic acid stain and vital dyes respectively. EC50 values were calculated using a nonlinear regression curve fit in Prism Software version 8 (GraphPad).
# [1] = tested on: P. falciparum Dd2:T648M (CRISPR edited PfAcAS); experiment: Blood-stage dose-response assay, CRISPR-edited Dd2:T648M line; settings: Plasmodium falciparum, mean ± SD, n bioreplicates
# Procedure: as §2
# (§3) Mutant PfAcAS-A597V and PfAcAS-T648M parasites were generated using CRISPR/Cas9. The guide RNAs for PfAcAS-A597V (5′-[…]-3′; 5′-[…]-3′) and for PfAcAS-T648M (5′-[…]-3′) were designed using Benchling (https://benchling.com/) to targeting sites in PfAcAS that were 6-14 bp upstream of the A597 codon and 6 bp downstream of the T648 codon respectively. Complementary oligos encoding the gRNA sequences (5′- tatt[…]-3’ / 5’-aaac[…]-3’; 5’-tatt[…]-3’ / 5’-aaac[…]-3’ and 5’- tattg[…]-3’ / 5’-aaac[…]c-3’ ) were phosphorylated using T4 polynucleotide kinase and annealed (95°C for 5 min, then step down of 5°C/min to 25°C) prior to ligation into the BbsI-digested pDC2-coCas9-U6.2-hDHFR plasmid ([Lim et al., 2016]). The donor template for PfAcAS-A597V was synthesized (ThermoFisher) as a 700 bp Genestring fragment spanning position 1468 to 2168 of the PfAcAS gene, and the donor for PfAcAS-T648M synthesized as a 829 bp fragment spanning position 1468 to 2297 and inserted into the AatII/EcoRI sites of the pDC2-coCas9-gRNA-hDHFR plasmid by Gibson assembly. Ring-stage parasites (Dd2) at 5% parasitemia were transfected by electroporation (BioRad Gene Pulser II at 0.310 kV and 950 μF) with 50 μg of each plasmid (plasmid 1: pDC2-coCas9-AcAS-A597V-gRNA1-hDHFR, plasmid 2: pDC2-coCas9-gRNA2-hDHFR, or plasmid 3: pDC2-coCas9-AcAS-T648M-gRNA1-hDHFR), and parasites selected for 10 days with 2.5 nM WR99210 (Jacobus Pharmaceuticals), followed by removal of drug pressure. After confirmation of editing in the bulk culture, clones were isolated by serial limiting dilution and confirmed by Sanger sequencing after PCR amplification from genomic DNA using forward primer 5′-[…]-3′ and reverse primer 5′-[…]-3′ (for A597V) and 5′-[…]-3′ (for T648M).
# [2] = tested on: P. falciparum Dd2:A597V (CRISPR edited PfAcAS); experiment: Blood-stage dose-response assay, CRISPR-edited Dd2:A597V line; settings: Plasmodium falciparum, mean ± SD, n bioreplicates
# Procedure: as §2, §3
# P. falciparum Dd2-B2 = experiment: Blood-stage dose-response assay (72 hr), Dd2 / Dd2-B2 parent; settings: Plasmodium falciparum
# Procedure: as §1, §2
# [3] = tested on: histone acetylation in P. falciparum 3D7-T648M; experiment: Histone acetylation Western blot, drug-selected 3D7-T648M; settings: trophozoites, 3 h exposure
# Procedure: Synchronous trophozoite-stage (24-32hr post-invasion) cultures at 3–5% parasitemia and 2% hematocrit in complete medium were exposed to test compounds for 3 hr at 37°C. […] DMSO was tested at 0.1% as the vehicle-only control. Following drug exposure, parasites were isolated via saponin lysis ice-cold 0.1% saponin in phosphate-buffered saline (PBS). Isolated parasites were washed 3x in ice-cold PBS containing protease inhibitor cocktail (cOmplete mini, Roche) and lysed in 1x Laemmli Sample Buffer (Biorad) with 5% beta-mercaptoethanol (Sigma-Aldrich). Samples were heated at 99°C for 10 min before centrifugation. Equal quantities of solute were separated on Protean TGX Precast Gels (4–20% gradient) in Tris-SDS-glycine buffer, transferred to nitrocellulose membrane by iblot (Invitrogen), and blocked for 1h in tris-buffered saline (TBS) with 5% skim milk powder. Blocked membranes were probed with antibodies recognising tetra-acetylated H4 (H4ac4, Sigma-Aldrich 06–866), H4K8ac (CST #2594), H3K9ac (CST #9649) or H3 (CST #4499), at 1:1000 dilution, and PfBiP ([Shonhai et al., 2007]) (at 1:5000 dilution) in 3% milk powder TBS with 0.1% Tween 20 at 4°C overnight and with 800CW goat α-rabbit IgG (Licor) at 1:10,000 dilution. Membranes were visualised using a Licor Odyssey CLX imaging system and quantified using ImageJ.
# [4] = mean ± SD, n bioreplicates, read-out: 3D7-A10 parent EC50 ± SD
# [5] = DD2, read-out: Dd2-B2 parent EC50 ± SD (nM)
SMILES,EC50 (P. falciparum 3D7-A10; [4]),EC50 [1],EC50 [2],EC50 (P. falciparum Dd2-B2; [5]),histone acetylation in 3D7-T648M parasite line [3],"EC50 (P. falciparum 3D7-A10; blood-stage parasites in vitro, read-out: P. falciparum 3D7 half-maximal effective concentration [EC50])","EC50 (P. falciparum Dd2-B2; DD2, read-out: P. falciparum Dd2 EC50)","EC50 (P. falciparum Dd2-B2; DD2, read-out: mean EC50 (nM) ± SD (n))"
"O=C1C(O)=C([C@H]2CC[C@H](c3ccc(Cl)cc3)CC2)C(=O)c2ccccc21 [Atovaquone, reference compound]",0.42 ± 0.05 nM,0.69 ± 0.38 nM,0.55 ± 0.35 nM,0.3 ± 0.13 nM,–,–,–,–
O=C(NNC(=O)c1csnn1)c1ccc(Cl)cc1 [MMV084978],110 ± 28 nM,12000 nM,43000 nM,150 ± 36 nM,protection,–,–,–
CCN(CC)S(=O)(=O)c1ccc(Cl)c(C(=O)Nc2ccc3nc(C)sc3c2)c1 [MMV019721],400 ± 58 nM,8200 nM,6200 nM,400 ± 72 nM,little to no measurable effect,460 ± 100 nM,400 ± 72 nM,400 ± 72 nM
